Laboratory results from patent publication US11447502B2, “Antibacterial agents: dual-targeted RNA polymerase inhibitors” (priority 2018, dated 2022).
≈ marks a conversion by molar mass, not a printed value.

Legend:
Assay in all cases: microbe, parasite or virus in culture
Type in all cases: cell-based
[1] = test system: rifampin-resistant M. tuberculosis 4457 (rpoB-H′526′Y); conditions: Mycobacterium tuberculosis; read-out: antibacterial activity rifampin-resistant M. tuberculosis 4457 (rpoB-H′526′Y) MIC
[2] = test system: rifampin-resistant M. tuberculosis 10545 (rpoB-S′531′L); conditions: Mycobacterium tuberculosis; read-out: antibacterial activity rifampin-resistant M. tuberculosis 10545 (rpoB-S′531′L) MIC
[3] = test system: rifampin-resistant M. tuberculosis 20626 (rpoB-H′526′D); conditions: Mycobacterium tuberculosis; read-out: antibacterial activity rifampin-resistant M. tuberculosis 20626 (rpoB-H′526′D) MIC

Row | SMILES | MIC [1] | MIC [2] | MIC [3]
1 | CO[C@H]1/C=C/O[C@@]2(C)Oc3c(C)c(O)c4c(O)c(c(/C=N/N5CCN(CCN6CCN(c7ccc(F)cc7NC(=O)C(Cc7ccccc7)NC(=O)c7ccccc7F)CC6)CC5)c(O)c4c3C2=O)NC(=O)/C(C)=C\C=C\[C@H](C)[C@H](O)[C@@H](C)[C@@H](O)[C@@H](C)[C@H](OC(C)=O)[C@@H]1C (some centres unmarked) [IX-403, Rifamycin SV—(CHN)—IX-402 Conjugate] | 12.5 µg/mL (≈ 9.62 µM) | 12.5 µg/mL (≈ 9.62 µM) | 25 µg/mL (≈ 19.2 µM)
2 | [2H]C([2H])(c1ccccc1)C(NC(=O)c1ccccc1F)C(=O)Nc1cc(F)ccc1N1CCN(/N=C/C2=C3NC(=O)/C(C)=C\C=C\[C@H](C)[C@H](O)[C@@H](C)[C@@H](O)[C@@H](C)[C@H](OC(C)=O)[C@H](C)[C@@H](OC)/C=C/O[C@@]4(C)Oc5c(C)c(O)c(c(c5C4=O)C2=O)C3=O)CC1 (some centres unmarked) [IX-476a, Rifamycin S—(CHN)—IX-370a Conjugate] | 3.13 µg/mL (≈ 2.64 µM) | 6.25 µg/mL (≈ 5.26 µM) | –
